Results reported in PMC8570587 (Medicinal chemistry research : an international journal for …, 2021).

Assays:
recombinant human MAO-B = biological target: T1, recombinant human MAO-B (Homo sapiens, UniProt P27338); assay: MAO-B enzyme inhibition assay; type: biochemical
T1 sequence (P27338 1-520): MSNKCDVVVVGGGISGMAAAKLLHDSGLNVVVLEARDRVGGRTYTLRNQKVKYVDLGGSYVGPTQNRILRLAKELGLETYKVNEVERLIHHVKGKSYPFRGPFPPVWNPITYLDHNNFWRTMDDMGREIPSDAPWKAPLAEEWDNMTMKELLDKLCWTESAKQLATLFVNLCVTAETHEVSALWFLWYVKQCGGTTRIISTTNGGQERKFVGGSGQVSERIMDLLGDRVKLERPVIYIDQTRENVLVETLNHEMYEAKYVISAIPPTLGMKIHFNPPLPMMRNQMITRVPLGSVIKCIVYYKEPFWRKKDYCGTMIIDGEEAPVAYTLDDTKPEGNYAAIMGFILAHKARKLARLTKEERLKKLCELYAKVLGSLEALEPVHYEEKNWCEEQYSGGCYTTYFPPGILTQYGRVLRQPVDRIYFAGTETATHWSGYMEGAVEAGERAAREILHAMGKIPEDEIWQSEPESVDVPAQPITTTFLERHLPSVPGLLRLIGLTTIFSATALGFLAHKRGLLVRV

ORAC antioxidant assay = type: physicochemical; conditions: read-out: ORAC antioxidant EC50; positive control

NS(=O)(=O)Cc1noc2ccccc12 [Zonisamide]
IC50 (recombinant human MAO-B): 22.6 µM

O=C1O[C@H]([C@@H](O)CO)C(O)=C1O [Vitamin C]
EC50 (ORAC antioxidant assay): 25.9 µM
